Assay in all cases: EMSA
What all share (type): binding
Details in all cases: labelled compound (32P, ~1 uM), 20 uM protein; pH 7.5, 25 C
(In general: In EMSA bound probe runs differently from free probe, usually more slowly.)

Experiment [1] has as its target T1, FdSTING (Flavobacterium daejeonense, UniProt P0DUD9).
T1 sequence (P0DUD9 1-311): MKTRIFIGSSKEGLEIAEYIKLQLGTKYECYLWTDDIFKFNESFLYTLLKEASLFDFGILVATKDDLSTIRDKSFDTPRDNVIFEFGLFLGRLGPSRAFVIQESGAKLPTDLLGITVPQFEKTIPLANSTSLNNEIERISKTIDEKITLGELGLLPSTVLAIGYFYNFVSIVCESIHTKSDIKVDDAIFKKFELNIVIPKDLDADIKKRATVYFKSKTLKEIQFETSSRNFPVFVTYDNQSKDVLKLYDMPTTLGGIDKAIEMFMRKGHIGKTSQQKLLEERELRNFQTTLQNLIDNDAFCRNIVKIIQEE

In experiment [2] the target is T2, NdSTING (Niabella drilacis, UniProt A0A1G6LGU2).
T2 sequence (A0A1G6LGU2 1-312): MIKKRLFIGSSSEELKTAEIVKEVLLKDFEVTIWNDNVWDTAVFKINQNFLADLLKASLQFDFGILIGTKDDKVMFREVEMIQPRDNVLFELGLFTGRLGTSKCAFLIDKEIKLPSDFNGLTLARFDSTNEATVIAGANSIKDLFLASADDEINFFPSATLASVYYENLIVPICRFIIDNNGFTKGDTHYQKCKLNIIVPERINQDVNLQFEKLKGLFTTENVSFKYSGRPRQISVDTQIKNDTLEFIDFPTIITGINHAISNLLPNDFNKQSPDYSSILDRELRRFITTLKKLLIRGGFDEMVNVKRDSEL

The target of experiment [3] is AaSTING (Aggregatibacter actinomycetemcomitans, UniProt A0A5D0EMF2).
AaSTING, sequence (A0A5D0EMF2 whole entry): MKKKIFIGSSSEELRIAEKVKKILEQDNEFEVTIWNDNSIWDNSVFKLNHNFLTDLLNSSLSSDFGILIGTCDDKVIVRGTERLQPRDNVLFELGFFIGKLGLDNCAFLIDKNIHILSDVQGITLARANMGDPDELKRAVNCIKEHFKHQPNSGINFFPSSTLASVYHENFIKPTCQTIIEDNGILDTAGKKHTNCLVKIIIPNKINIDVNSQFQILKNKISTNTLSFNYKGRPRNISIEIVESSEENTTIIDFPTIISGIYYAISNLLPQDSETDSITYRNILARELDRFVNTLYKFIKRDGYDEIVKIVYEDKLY
Experiment [4] concerns the target T3, LbSTING (Lachnospiraceae bacterium RUG226, UniProt P0DUE0).
T3 sequence (P0DUE0 1-316): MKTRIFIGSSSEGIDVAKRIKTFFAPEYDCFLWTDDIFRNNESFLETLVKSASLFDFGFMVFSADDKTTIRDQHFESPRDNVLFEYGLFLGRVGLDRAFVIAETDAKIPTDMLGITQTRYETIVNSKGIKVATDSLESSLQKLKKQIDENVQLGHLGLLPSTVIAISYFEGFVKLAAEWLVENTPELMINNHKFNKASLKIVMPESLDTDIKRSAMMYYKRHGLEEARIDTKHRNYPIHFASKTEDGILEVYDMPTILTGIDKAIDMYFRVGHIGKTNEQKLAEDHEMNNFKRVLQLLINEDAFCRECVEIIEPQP

Consider `Nc1nc2c(ncn2[C@@H]2O[C@@H]3COP(=O)(O)O[C@H]4[C@@H](O)[C@H](n5cnc6c(=O)[nH]c(N)nc65)O[C@@H]4COP(=O)(O)O[C@H]3[C@H]2O)c(=O)[nH]1` [c-di-GMP], for which the EMSA entry in experiment [1] is on record as “diverse panel of bacterial STING homologues demonstrates conservation of c-di-GMP binding”; in experiment [2], “diverse panel of bacterial STING homologues demonstrates conservation of c-di-GMP binding”; in experiment [3] it was “Bacterial STING receptors specifically recognize c-di-GMP”; in experiment [4], “Bacterial STING receptors specifically recognize c-di-GMP”.
